{"source": "paper PMC5473888", "about": "(Scientific Reports, 2017)", "key": {"[1]": {"tested_on": "DA uptake in rat synaptosomes", "set-up": "method as in PMID 25788711", "details": "read-out: Potency for inhibition of DA uptake; cited from earlier work"}, "WT hDAT [2]": {"target": "T1, WT hDAT (Homo sapiens, UniProt Q01959)", "T1 sequence (Q01959 whole entry)": "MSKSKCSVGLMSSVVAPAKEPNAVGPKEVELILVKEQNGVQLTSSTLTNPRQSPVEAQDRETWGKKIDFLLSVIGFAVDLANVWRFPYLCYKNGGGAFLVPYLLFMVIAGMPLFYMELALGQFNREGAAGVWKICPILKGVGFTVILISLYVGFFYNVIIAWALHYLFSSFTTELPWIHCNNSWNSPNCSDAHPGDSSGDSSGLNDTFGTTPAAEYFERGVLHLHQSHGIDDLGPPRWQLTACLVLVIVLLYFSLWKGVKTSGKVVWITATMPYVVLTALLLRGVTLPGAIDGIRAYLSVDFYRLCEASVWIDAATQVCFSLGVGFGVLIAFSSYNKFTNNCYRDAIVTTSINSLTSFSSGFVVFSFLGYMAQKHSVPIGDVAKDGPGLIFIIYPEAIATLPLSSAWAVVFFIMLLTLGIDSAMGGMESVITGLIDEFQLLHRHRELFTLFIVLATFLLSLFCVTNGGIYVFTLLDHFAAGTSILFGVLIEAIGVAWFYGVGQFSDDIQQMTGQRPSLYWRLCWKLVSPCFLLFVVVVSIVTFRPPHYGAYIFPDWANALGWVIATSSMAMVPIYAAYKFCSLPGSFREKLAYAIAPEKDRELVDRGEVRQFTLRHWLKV", "test": "Tat-induced inhibition of specific [3H]WIN35,428 binding in CHO cells transfected with WT hDAT", "set-up": "synthetic cDNA encoding hDAT subcloned into pcDNA3.1 +; expressed in transfected cells; host or cells: CHO cells (ATCC CRL-61), transient, Lipofectamine 2000, pcDNA3.1+", "protocol": "CHO cells transfected with WT hDAT were incubated with [^3H]WIN 35,428 (final concentration, 5 nM) with or without recombinant Tat1–86 (rTat1–86) (40 nM, final concentration) on ice for 2 h. […] Data for rTat1–86 and SRI-30827 + rTat1–86 are expressed as the percentage of their respective controls in the absence of rTat1–86 (15675 ± 2982 DPM) and SRI-30827 (14041 ± 3212 DPM) n = 5. *p < 0.05 compared with control value.\nPC12 cells were maintained in the incubator (37 °C, 5% CO2) with DMEM medium supplemented with horse serum (15%) and bovine calf serum (2.5%), glutamine (2 mM), and penicillin-streptomycin (100 U/ml). Chinese hamster ovary cells (CHO cells, ATCC, CRL-61) were maintained in F12 medium with 10% fetal bovine serum and antibiotics (100 U/mL penicillin and 100 µg/mL streptomycin). For hDATs transfection, cells were seeded into poly-D-lysine-coated 24 well plates at a density of 1 × 10^5 cells/well. After 24 h, cells were transfected with WT or mutant DAT plasmids using Lipofectamine 2000 (Life Tech, Carlsbad, CA) based on the manufacturer’s instruction. Cells were used for the experiments after 24 h of transfection."}, "Y470F-hDAT": {"target": "T2, Y470F-hDAT (Homo sapiens, UniProt Q01959, Y470F)", "T2 construct": "synthetic cDNA encoding hDAT subcloned into pcDNA3.1 +; expressed in transfected cells; host or cells: PC12 cells (ATCC CRL-1721), transient, Lipofectamine 2000, pcDNA3.1+", "T2 sequence (Q01959 whole entry Y470F)": "as the sequence (Q01959 whole entry) above, with Y470F counted along it", "test": "Competitive inhibition [3H]DA uptake assay in transfected PC12 cells", "format": "cell-based", "details": "SRI-20041 12.8 µM", "from_the_text": "(§1) Results are presented as mean ± SEM, and n represents the number of independent experiments for each experiment group."}, "WT hDAT [3]": {"target": "T1, WT hDAT", "test": "Competitive inhibition [3H]DA uptake assay in transfected PC12 cells", "format": "cell-based", "set-up": "synthetic cDNA encoding hDAT subcloned into pcDNA3.1 +; expressed in transfected cells; host or cells: PC12 cells (ATCC CRL-1721), transient, Lipofectamine 2000, pcDNA3.1+", "details": "SRI-20041 12.8 µM", "from_the_text": "as §1"}}, "note": "pIC50: −log10 of the molar value."}
{"smiles": "Cc1cc2nccn2cc1-c1nc(NCC(c2ccccc2)c2ccccc2)c2ccccc2n1", "note": "[SRI-30827]", "values": [{"measurement": "pIC50", "setting": "[1]", "result": 9.30}, {"measurement": "Effect on the specific [3H]WIN35,428 binding", "setting": "WT hDAT [2]; SRI-30827 50 nM alone", "result": "did not alter"}, {"measurement": "Specific [3H]WIN35,428 binding", "setting": "WT hDAT [2]; SRI-30827 50 nM in the absence of rTat1–86, CHO cells, n = 5", "result": "14041 ± 3212", "unit": "DPM"}]}
{"smiles": "c1ccc(-c2nc(NCCC(c3ccccc3)c3ccccc3)c3ccccc3n2)cc1", "note": "[SRI-20041]", "values": [{"measurement": "Increase of cocaine IC50 of [3H]DA uptake", "setting": "Y470F-hDAT", "result": "~ 40%"}, {"measurement": "Increase of cocaine IC50 of [3H]DA uptake", "setting": "WT hDAT [3]", "result": "~ 35%"}]}
